US20240165243A1, “EGFR DEGRADERS AND METHODS OF USE” (BeiGene Switzerland GmbH, priority 2021, published 2024)

Legend:
EGFR (L858R/T790M/C797S) = EGFR (L858R/T790M/C797S) (Homo sapiens, UniProt P00533, C797S/L858R/T790M); assay: Cell degradation HTRF assay, BaF3-LTC cells; type: cell-based; parameters: expressed in transfected cells; host or cells: BaF3-LTC; settings: 16 h treatment; for DC50: HTRF; for Dmax: maximum percentage of degradation
Description: (§1) Cell Degradation of Example 1-28
(§2) BaF3-LTC (L858R/T790M/C797S) and BaF3-DTC (Del19/T790M/C797S) cells are treated with compounds diluted in 0.2% DMSO cell culture medium and incubate for 16 h, 37° C., 5% CO2. The final concentration of compounds in all assay is start with 10 uM, 4-fold dilution, total 8 doses were included.
(§3) After 16 h treatment, add HTRF lysis buffer to each well; seal the plate and incubate 1 hour at room temperature on a plate shaker; Once the cells are lysed, 16 μL of cell lysate are transferred to a PE 384-well HTRF detection plate; 4 μL of pre-mixed HTRF antibodies are added to each well; Cover the plate with a plate sealer, spin 1000 rpm for 1 min, Incubate overnight at room temperature; Read on BMG PheraStar with HTRF protocol (337 nm-665 nm-620 nm). The inhibition (degradation) percentage of the compound was calculated by the following equation:
(§4) Inhibition percentage of Compound=100−100×(Signal−low control)/(High control−low control), wherein signal=each test compound group.
(§5) High control=Cell group with added DMSO and without compound, indicating microplate readings without EGFR degradation;
(§6) Dmax is the maximum percentage of inhibition (degradation).
(§7) The IC50 (DC50) value of a compound can be obtained by fitting the following equation
(§8) Y=Bottom+(TOP−Bottom)/(1+((C50/X)^hillslope))
(§9) Wherein, X and Y are known values, and IC50, Hillslope, Top and Bottom are the parameters obtained by fitting with software. Y is the inhibition percentage (calculated from the equation), X is the concentration of the compound; IC50 is the concentration of the compound when the 50% inhibition is reached. The smaller the IC50 value is, the stronger the inhibitory ability of the compound is. Vice versa, the higher the IC50 value is, the weaker the ability the inhibitory ability of the compound is; Hillslope represents the slope of the fitted curve, generally around 1*; Bottom represents the minimum value of the curve obtained by data fitting, which is generally 000±20%; Top represents the maximum value of the curve obtained by data fitting, which is generally 100%±20%. The experimental data were fitted by calculating and analyzing with Dotmatics data analysis software. When Dmax<50%, DC50 will be automatically assigned as larger than […].

EGFR (Del19/T790M/C797S) = assay: Cell degradation HTRF assay, BaF3-DTC cells; type: cell-based; settings: 16 h treatment; for DC50: HTRF; for DTC Dmax (%): maximum percentage of degradation
Description: as §1, §2, §3, §4, §5, §6, §7, §8, §9

Sequence of EGFR (L858R/T790M/C797S) (P00533 25-1210 T790M/C797S/L858R): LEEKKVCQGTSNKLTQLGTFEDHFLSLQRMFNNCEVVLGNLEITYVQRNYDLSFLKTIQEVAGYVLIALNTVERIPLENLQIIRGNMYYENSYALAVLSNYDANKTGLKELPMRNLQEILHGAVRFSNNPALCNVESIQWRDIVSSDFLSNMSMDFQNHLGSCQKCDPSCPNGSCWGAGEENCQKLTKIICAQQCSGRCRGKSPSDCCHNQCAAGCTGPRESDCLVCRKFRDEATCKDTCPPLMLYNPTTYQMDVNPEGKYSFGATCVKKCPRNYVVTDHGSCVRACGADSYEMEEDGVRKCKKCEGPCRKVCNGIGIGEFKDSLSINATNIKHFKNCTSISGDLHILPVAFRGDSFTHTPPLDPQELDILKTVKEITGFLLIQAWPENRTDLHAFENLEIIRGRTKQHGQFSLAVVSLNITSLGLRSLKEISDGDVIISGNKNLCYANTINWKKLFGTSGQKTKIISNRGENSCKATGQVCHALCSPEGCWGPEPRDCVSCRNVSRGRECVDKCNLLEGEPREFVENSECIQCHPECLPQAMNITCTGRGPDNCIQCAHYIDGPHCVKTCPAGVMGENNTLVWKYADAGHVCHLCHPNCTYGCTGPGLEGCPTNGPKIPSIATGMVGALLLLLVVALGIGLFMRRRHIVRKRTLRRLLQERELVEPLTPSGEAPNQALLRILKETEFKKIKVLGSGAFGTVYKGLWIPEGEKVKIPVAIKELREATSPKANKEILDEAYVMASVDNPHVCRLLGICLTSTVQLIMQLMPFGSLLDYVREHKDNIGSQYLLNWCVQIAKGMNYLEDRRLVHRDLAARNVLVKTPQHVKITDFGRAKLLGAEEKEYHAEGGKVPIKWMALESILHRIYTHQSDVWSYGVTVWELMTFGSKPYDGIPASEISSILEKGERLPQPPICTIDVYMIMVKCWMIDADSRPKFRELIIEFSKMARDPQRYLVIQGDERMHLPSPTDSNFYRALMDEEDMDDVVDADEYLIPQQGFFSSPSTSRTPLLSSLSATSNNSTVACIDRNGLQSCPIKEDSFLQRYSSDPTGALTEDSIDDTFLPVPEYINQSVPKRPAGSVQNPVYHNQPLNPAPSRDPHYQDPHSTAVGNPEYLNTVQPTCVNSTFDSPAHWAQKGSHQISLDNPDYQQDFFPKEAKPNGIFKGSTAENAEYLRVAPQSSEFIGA

Row | DC50 (EGFR (L858R/T790M/C797S)) [nM] | Dmax (EGFR (L858R/T790M/C797S)) [%] | DC50 (EGFR (Del19/T790M/C797S)) [nM] | SMILES | DTC Dmax (%) (EGFR (Del19/T790M/C797S))
1 | 25 | 90.7 | 10.4 | CCc1cc(Nc2ncc(Br)c(Nc3cnc4ccccc4c3P(C)(C)=O)n2)c(OC)cc1N1CCC(N2CCN(CCC3CCN(c4cc(F)c(C5CCC(=O)NC5=O)c(F)c4)CC3)CC2)CC1 (stereo not shown) [Example 1, 3-(4-(4-(2-(4-(1-(4-((5-bromo-4-((4-(dimethylphosphoryl)quinolin-3-yl)amino)pyrimidin-2-yl)amino)-2-ethyl-5-methoxyphenyl)piperidin-4-yl)piperazin-1-yl)ethyl)piperidin-1-yl)-2,6-difluorophenyl)piperidine-2,6-dione] | 96.55
2 | 146 | 85 | 18.5 | CCc1cc(Nc2ncc(Br)c(Nc3cnc4ccccc4c3P(C)(C)=O)n2)c(OC)cc1N1CCC(N2CCN(CCc3ccc(C4CCC(=O)NC4=O)c(F)c3)CC2)CC1 (stereo not shown) [Example 2, 3-(4-(2-(4-(1-(4-((5-bromo-4-((4-(dimethylphosphoryl)quinolin-3-yl)amino)pyrimidin-2-yl)amino)-2-ethyl-5-methoxyphenyl)piperidin-4-yl)piperazin-1-yl)ethyl)-2-fluorophenyl)piperidine-2,6-dione] | 86.75
3 | 7.75 | 90.5 | 3.94 | CCc1cc(Nc2ncc(Br)c(Nc3cnc4ccccc4c3P(C)(C)=O)n2)c(OC)cc1N1CCC(N2CCN(C[C@H]3CCN(c4ccc5c(c4)CN(C4CCC(=O)NC4=O)C5=O)C3)CC2)CC1 (stereo partly drawn) [Example 4, 3-(5-((R)-3-((4-(1-(4-((5-bromo-4-((4-(dimethylphosphoryl)quinolin-3-yl)amino)pyrimidin-2-yl)amino)-2-ethyl-5-methoxyphenyl)piperidin-4-yl)piperazin-1-yl)methyl)pyrrolidin-1-yl)-1-oxoisoindolin-2-yl)piperidine-2,6-dione] | 91.36
4 | 45.3 | 82.7 | 15.5 | CCc1cc(Nc2ncc(Br)c(Nc3cnc4cccnc4c3P(C)(C)=O)n2)c(OC)cc1N1CCC(N2CCN(CCc3cc(F)c(C4CCC(=O)NC4=O)c(F)c3)CC2)CC1 (stereo not shown) [Example 7, 3-(4-(2-(4-(1-(4-((5-bromo-4-((4-(dimethylphosphoryl)-1,5-naphthyridin-3-yl)amino)pyrimidin-2-yl)amino)-2-ethyl-5-methoxyphenyl)piperidin-4-yl)piperazin-1-yl)ethyl)-2,6-difluorophenyl)piperidine-2,6-dione] | 93.86
5 | 30.2 | 89.6 | 11.8 | CCc1cc(Nc2ncc(Br)c(Nc3cnc4c(C)cccc4c3P(C)(C)=O)n2)c(OC)cc1N1CCC(N2CCN(CCC3CCN(c4cc(F)c(C5CCC(=O)NC5=O)c(F)c4)CC3)CC2)CC1 (stereo not shown) [Example 8, 3-(4-(4-(2-(4-(1-(4-((5-bromo-4-((4-(dimethylphosphoryl)-8-methylquinolin-3-yl)amino)pyrimidin-2-yl)amino)-2-ethyl-5-methoxyphenyl)piperidin-4-yl)piperazin-1-yl)ethyl)piperidin-1-yl)-2,6-difluorophenyl)piperidine-2,6-dione] | 96.88
6 | 29.3 | 88 | 12.7 | CCc1cc(Nc2ncc(Br)c(Nc3cnc4cccnc4c3P(C)(C)=O)n2)c(OC)cc1N1CCC(N2CCN(CCC3CCN(c4cc(F)c(C5CCC(=O)NC5=O)c(F)c4)CC3)CC2)CC1 (stereo not shown) [Example 9, 3-(4-(4-(2-(4-(1-(4-((5-bromo-4-((4-(dimethylphosphoryl)-1,5-naphthyridin-3-yl)amino)pyrimidin-2-yl)amino)-2-ethyl-5-methoxyphenyl)piperidin-4-yl)piperazin-1-yl)ethyl)piperidin-1-yl)-2,6-difluorophenyl)piperidine-2,6-dione] | 96.14
7 | 219 | 88.4 | 24.8 | CCc1cc(Nc2ncc(Br)c(Nc3cnc4c(C)cccc4c3P(C)(C)=O)n2)c(OC)cc1N1CCC(N2CCN(CCc3cc(F)c(C4CCC(=O)NC4=O)c(F)c3)CC2)CC1 (stereo not shown) [Example 10, 3-(4-(2-(4-(1-(4-((5-bromo-4-((4-(dimethylphosphoryl)-8-methylquinolin-3-yl)amino)pyrimidin-2-yl)amino)-2-ethyl-5-methoxyphenyl)piperidin-4-yl)piperazin-1-yl)ethyl)-2,6-difluorophenyl)piperidine-2,6-dione] | 88.58
8 | 68.8 | 89.1 | 14.4 | CCc1cc(Nc2ncc(Br)c(Nc3cnc4ccccc4c3P(C)(C)=O)n2)c(OC)cc1N1CCC(N2CCN(CCc3cccc4c3cnn4C3CCC(=O)NC3=O)CC2)CC1 (stereo not shown) [Example 12, 3-(4-(2-(4-(1-(4-((5-bromo-4-((4-(dimethylphosphoryl)quinolin-3-yl)amino)pyrimidin-2-yl)amino)-2-ethyl-5-methoxyphenyl)piperidin-4-yl)piperazin-1-yl)ethyl)-1H-indazol-1-yl)piperidine-2,6-dione] | 91.82
9 | 546 | 84.6 | 186 | CCc1cc(Nc2ncc(Br)c(Nc3cnc4ccccc4c3P(C)(C)=O)n2)c(OC)cc1N1CCC(N2CCN(CCc3cccc4nn(C5CCC(=O)NC5=O)cc34)CC2)CC1 (stereo not shown) [Example 14, 3-(4-(2-(4-(1-(4-((5-bromo-4-((4-(dimethylphosphoryl)quinolin-3-yl)amino)pyrimidin-2-yl)amino)-2-ethyl-5-methoxyphenyl)piperidin-4-yl)piperazin-1-yl)ethyl)-2H-indazol-2-yl)piperidine-2,6-dione] | 81.73
10 | 3.23 | 86.4 | 1.23 | CCc1cc(Nc2ncc(Br)c(Nc3cnc4ccccc4c3P(C)(C)=O)n2)c(OC)cc1N1CCC(N2CCN(C(=O)C3CCN(c4ccc5c(c4)n(C)c(=O)n5C4CCC(=O)NC4=O)CC3)CC2)CC1 (stereo not shown) [Example 15, 3-(5-(4-(4-(1-(4-((5-bromo-4-((4-(dimethylphosphoryl)quinolin-3-yl)amino)pyrimidin-2-yl)amino)-2-ethyl-5-methoxyphenyl)piperidin-4-yl)piperazine-1-carbonyl)piperidin-1-yl)-3-methyl-2-oxo-2,3-dihydro-1H-benzo[d]imidazol-1-yl)piperidine-2,6-dione] | 94.57
11 | 5.05 | 89.7 | 2.14 | CCc1cc(Nc2ncc(Br)c(Nc3cnc4ccccc4c3P(C)(C)=O)n2)c(OC)cc1N1CCC(N2CCN(C(=O)C3CN(c4ccc5c(c4)CN(C4CCC(=O)NC4=O)C5=O)C3)CC2)CC1 (stereo not shown) [Example 16, 3-(5-(3-(4-(1-(4-((5-bromo-4-((4-(dimethylphosphoryl)quinolin-3-yl)amino)pyrimidin-2-yl)amino)-2-ethyl-5-methoxyphenyl)piperidin-4-yl)piperazine-1-carbonyl)azetidin-1-yl)-1-oxoisoindolin-2-yl)piperidine-2,6-dione] | 96.98
12 | 3.86 | 92.5 | 1.94 | CCc1cc(Nc2ncc(Br)c(Nc3cnc4ccccc4c3P(C)(C)=O)n2)c(OC)cc1N1CCC(N2CCN(C(=O)C3CCN(c4ccc5c(c4)C(C)(C)C(=O)N5C4CCC(=O)NC4=O)CC3)CC2)CC1 (stereo not shown) [Example 17, 3-(5-(4-(4-(1-(4-((5-bromo-4-((4-(dimethylphosphoryl)quinolin-3-yl)amino)pyrimidin-2-yl)amino)-2-ethyl-5-methoxyphenyl)piperidin-4-yl)piperazine-1-carbonyl)piperidin-1-yl)-3,3-dimethyl-2-oxoindolin-1-yl)piperidine-2,6-dione] | 96.58
13 | 14.6 | 90.7 | 3.95 | CCc1cc(Nc2ncc(Br)c(Nc3cnc4ccccc4c3P(C)(C)=O)n2)c(OC)cc1N1CCC(N2CCN(C(=O)[C@H]3C[C@H](N(C)c4cc(F)c(C5CCC(=O)NC5=O)c(F)c4)C3)CC2)CC1 (stereo partly shown) [Example 18, 3-(4-(((1r,3r)-3-(4-(1-(4-((5-bromo-4-((4-(dimethylphosphoryl)quinolin-3-yl)amino)pyrimidin-2-yl)amino)-2-ethyl-5-methoxyphenyl)piperidin-4-yl)piperazine-1-carbonyl)cyclobutyl)(methyl)amino)-2,6-difluorophenyl)piperidine-2,6-dione] | 97.59
